How the values were obtained:
[1] = system: mitochondrial transcription (7S RNA) in HeLa cells; experiment: Quantitative real time-PCR assay of inhibition of mitochondrial transcription (cellular qPCR assay IMT); format: cell-based; settings: Homo sapiens, 4 h compound incubation, qRT-PCR according to Example 5, activity class
Outline: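 HeLa cells were exposed 4 h to compound dilution series or DMSO. Mitochondrial 7S RNA, with POLRMT for nuclear transcription, was measured by TaqMan qRT-PCR, normalised to TBP. Biological triplicates were analysed by ΔΔCt and expressed as Rq % (2^-ΔΔCt).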

[2] = system: human A2780 ovary carcinoma xenograft; experiment: Therapeutic effect on human A2780 ovary carcinoma xenograft in nude mice; format: in vivo, nude mice (female NMRI: nu/nu)
Protocol: In addition to the number of mice needed to build the groups necessary for the experiment, 8 additional mice were transplanted to have a sufficient number of satellite animals to improve stratification. Mice were stratified at day 7, when the mean tumor volume (TV) was 0.213±0.061 cm^3, (median TV=0.206 cm^3) into groups A-D with 8 mice each. 8 mice were excluded because of their tumor size.
Immediately before use, compound 14 was dissolved to obtain an injection solution to be sufficient for one week of treatment. The treatments were indicated as described in Table 6. […] Mean tumor […]±S.D. (RTV) was calculated. […] Mice of groups A, C and D were sacrificed at day 34 (QDx28 for times 28. Gross autopsy was performed from all mice.

[3] = system: CA-46 (lymphoma); experiment: CellTiter GLO viability assay, CA-46; format: cell-based; settings: Homo sapiens, CA46, 144 h, read-out: IC50 (μM) incubation time 144 h
Protocol: (§1) The CellTiter-Glo Luminescent Cell Viability Assay (Promega) is a homogeneous method of determining the number of viable cells in culture. It is based on quantification of ATP, indicating the presence of metabolically active cells.
(§2) […] After incubation for 3 h in humidified chambers at 37° C./5% CO2 compounds/DMSO were added at different concentrations. […] Cells treated with the compound vehicle DMSO were used as positive controls and cells treated with 10 μM Staurosporine served as negative controls. […] Thereon, mixture and assay plates were equilibrated at room temperature for 20 min. Equal volumes of the reagent-medium-mixture was added to the volume of culture medium present in each well.
(§3) The plates were mixed at ˜200 rpm for 2 minutes on an orbital shaker. The microplates were then incubated at room temperature for 10 minutes for stabilization of the luminescent signal. Following incubation the luminescence is recorded on a Victor microplate reader (Perkin Elmer) using 200 ms integration time. The data were then analyzed with Excel using the XLFIT Plugin (dose response Fit 205) for IC50-determination. As quality control the Z′-factor was calculated from 16 positive and negative control values. Only assay results showing a Z′-factor≥0.5 were used for further analysis.

[4] = system: HEC-59 (endometrial); experiment: CellTiter GLO viability assay, HEC-59; format: cell-based; settings: 144 h, read-out: IC50 (μM) incubation time 144 h
Protocol: as §1
(§4) Cells were seeded on day 1 at cell numbers that assure assay linearity and optimal signal intensity. After incubation for 3 h in humidified chambers at 37° C./5% CO2 compounds/DMSO were added at different concentrations. […] Cells treated with the compound vehicle DMSO were used as positive controls and cells treated with 10 μM Staurosporine served as negative controls. […] Thereon, mixture and assay plates were equilibrated at room temperature for 20 min. Equal volumes of the reagent-medium-mixture was added to the volume of culture medium present in each well.
as §3

[5] = system: HRT-18 (colon); experiment: CellTiter GLO viability assay, HRT-18; format: cell-based; settings: Homo sapiens, 144 h, read-out: IC50 (μM) incubation time 144 h
Protocol: as §1, §4, §3

[6] = system: NCI-H23 (lung); experiment: CellTiter GLO viability assay, NCI-H23; format: cell-based
Protocol: as §1, §4, §3

[7] = system: NCI-H596 (lung); experiment: CellTiter GLO viability assay, NCI-H596; format: cell-based; settings: Homo sapiens, 144 h, read-out: IC50 (μM) incubation time 144 h
Protocol: as §1, §4, §3

[8] = system: SW403 (colon); experiment: CellTiter GLO viability assay, SW403; format: cell-based; settings: Homo sapiens, SW-403, 144 h, read-out: IC50 (μM) incubation time 144 h
Protocol: as §1, §2, §3

[9] = system: SW48 (colon); experiment: CellTiter GLO viability assay, SW48; format: cell-based; settings: Homo sapiens, 144 h, read-out: IC50 (μM) incubation time 144 h
Protocol: as §1, §4, §3

[10] = system: human DLD-1 colon carcinoma xenograft; settings: mouse, in vivo
Protocol: DLD-1 colon carcinoma cells (5×10^6 cells in 100 μL of PBS/Matrigel), isolated during exponential growth phase from in vitro cell culture, were transplanted s.c. into each female BALB/c nude mouse at day 0. Mice were kept under strictly controlled and standardized barrier conditions in IVC.
Sorafenib) (Nexavar®, which is an approved multi-kinase inhibitor/cytostatic from Bayer A G, was used as a positive control. Body weight and tumor volume (TV) were monitored two to three times per week.
Mice of groups 3, 4 and 5 were treated again at the end of the study period and blood samples were taken to generate plasma 1 h prior and 1 h post treatment. In addition, tumor and tissue samples were isolated, divided into two parts and snap frozen in liquid nitrogen. Mice of groups 1-5 were sacrificed at day 39. Gross autopsy was performed from all mice.

C[C@@H](Oc1ccc2c(-c3ccc(F)cc3Cl)cc(=O)oc2c1)C(=O)N1CCC[C@H](C(=O)O)C1 [Compound 14, (3S)-1-[(2R)-2-[4-(2-chloro-4-fluoro-phenyl)-2-oxo-chromen-7-yl]oxypropanoyl]piperidine-3-carboxylic acid]
IC50 [1]: < 10 nM
Mean tumor weight ([2]; 30 mg/kg p.o. QD × 21): 0.629 g
RTV (relative tumor volume at day 27 compared to D 7) ([2]; 30 mg/kg p.o. QD × 21): 6.8
Tumor weight, % of control ([2]; 30 mg/kg p.o. QD × 21): (75.5) %
Tumor growth inhibition (D 27): Mean TV ([2]; 30 mg/kg p.o. QD × 21, day 27): 1.300 cm^3
optimum T/C value ([2]; 50 mg/kg): 88.3%
optimum T/C value ([2]; 100 mg/kg): 59.2%
Mean tumor weight ([2]; 100 mg/kg p.o. QD × 28): 0.491 g
RTV (relative tumor volume at day 27 compared to D 7) ([2]; 100 mg/kg p.o. QD × 28): 5.1
Tumor weight, % of control ([2]; 100 mg/kg p.o. QD × 28): (60,0) %
Tumor growth inhibition (D 27): Mean TV ([2]; 100 mg/kg p.o. QD × 28, day 27): 0.715 cm^3
optimum T/C value ([2]; 200 mg/kg): 24.9%
Mean tumor weight ([2]; 200 mg/kg p.o. QD × 28): 0.141 g
RTV (relative tumor volume at day 27 compared to D 7) ([2]; 200 mg/kg p.o. QD × 28): 1.1
Tumor weight, % of control ([2]; 200 mg/kg p.o. QD × 28): (16.99) %
Tumor growth inhibition (D 27): Mean TV ([2]; 200 mg/kg p.o. QD × 28, day 27): 0.232 cm^3
Tolerability ([2]; A2780 xenograft, p.o. QD): well tolerated
Therapeutic effect: tumor growth inhibition ([2]; all doses): dose-dependent tumor growth inhibition
Therapeutic effect: tumor growth inhibition ([2]; higher doses (100 and 200 mg/kg)): significantly more active regarding tumor growth inhibition
Therapeutic effect: tumor growth inhibition ([2]; lowest dose (50 mg/kg)): no significant effect
Autopsy at the end ([2]; mouse, in vivo): no abnormal observations
signs of toxicity ([2]; mouse, in vivo, po): no signs of toxicity were observed
IC50 [3]: ≤ 0.1 µM
IC50 [4]: > 10 µM
IC50 [5]: ≤ 0.1 µM
IC50 ([6]; Homo sapiens, NCI-H23 (lung), 144 h, read-out: IC50 (μM) incubation time 144 h): 1 to 10 µM
sensitivity of the cell line (in words) ([6]; NCl-H23): moderate sensitivity
IC50 [7]: 1 to 10 µM
IC50 [8]: ≤ 0.1 µM
IC50 [9]: 0.1 to 1 µM
Autopsy at the end [10]: no abnormal observations
body weight loss [10]: moderate body weight loss
signs of toxicity [10]: no signs of toxicity were observed
